In paper PMC6369734, “Spy vs. spy: selecting the best reporter for ^19F NMR competition experiments” (Chemical Communications (Cambridge, England), 2019):
Where two headings read alike, the source gives them in different places.

Columns and labels:
VHL (VBC complex) [1] = molecular target: T1, VHL (VBC complex) (Homo sapiens, UniProt P40337); test: 19F CPMG NMR transverse relaxation rate (R2) and R2 contrast (C2) of spy molecule with and without protein; assay type: binding; details: for R2 contrast – C2: supplement 8.1
T1 construct: equimolar complex of pVHL54-213, eloB1-104 and; made in house; host or cells: E. coli
T1 sequence (P40337 54-213): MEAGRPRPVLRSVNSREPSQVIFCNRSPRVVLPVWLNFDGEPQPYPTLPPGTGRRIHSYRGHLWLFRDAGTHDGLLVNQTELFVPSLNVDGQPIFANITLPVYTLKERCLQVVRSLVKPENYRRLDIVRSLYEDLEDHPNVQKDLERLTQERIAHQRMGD
T1 sequence (Q15370 1-104 partner limits assumed): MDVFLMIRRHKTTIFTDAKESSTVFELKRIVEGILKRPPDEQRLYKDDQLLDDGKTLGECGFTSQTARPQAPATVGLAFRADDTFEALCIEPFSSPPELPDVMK
T1 sequence (Q15369 17-112 partner limits assumed): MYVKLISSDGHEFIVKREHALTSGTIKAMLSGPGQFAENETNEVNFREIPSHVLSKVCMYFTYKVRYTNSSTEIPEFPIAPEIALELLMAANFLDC
Text: Due to the large CSA of fluorine and the significant differences in the fluorine isotropic chemical shift (δF) between the free and bound states, the transverse relaxation rate (R2) is a well-established sensitive parameter to detect ligand binding.[4] Therefore, fluorine NMR experiments including a Carr–Purcell–Meiboom–Gill (CPMG) spin-echo filter[10] before acquisition were employed to monitor ligand binding to VHL by measuring peak intensity, as changes in other NMR parameters, such as chemical shift and peak width, were not as significant. The R2 values of the CF3 peak of each compound in the absence and in the presence of protein were determined by performing multiple ^19F CPMG experiments varying the CPMG filter (Fig. 2a). To quantify the shift in R2 upon binding, the R2 contrast (C2)[11] was determined. Ideally, a good spy molecule should have a large increase in R2 (fast relaxation) when protein is present, resulting in a large assay window for the competition experiments (Fig. 2b).
5. Measurement of the transverse relaxation rates by 19F CPMG NMR
All the NMR experiments were performed in a 500 MHz Bruker AVANCE N MR spectrometer equipped with a CPQCI -F cryoprobe. To measure the transverse relaxation rates (R 2), a solution of each spy molecule at 100 μM was prepared in 50 mM potassium phosphate monobasic (KH2PO4), pH 7.5, 100 mM NaCl, 1 mM TCEP, 2% (v/v) DMSO, 20% D2O and 10 µM trifluoroacetic acid (TFA). For each solution, 19F CPMG experiments […]
Due to the fast relaxation of molecules 21 and 22, these experiments were repeated with shorter CPMG filters (50, 100, 150, 200, 300, 400, 700 and 1000 ms). The fluorine peaks were integrated and plotted against the resp ective CPMG filters. The R 2 relaxation rates were obtained from fitting the data as a n exponential decay (GraphPad Prism 6) according to the equation below: [7]
Where I(t) is the 19F signal intensity or integral, t is the total CPMG filter in seconds, I(0) is the signal intensity when t = 0. To obtain the R2 upon addition of prot ein, all the experiments above were repeated in presence of VBC at 1 µM. Experiments were performed as triplicates and the R 2 contrasts (C2) were obtained according to the equation below: [8]
Where R2Free is the R2 obtained for the spy molecule free in solution and R2Observed is the R2 obtained with the spy molecule in presence of VBC. The raw data, fitting, R2 and C2 values for each spy molecule can be found in section 8.1. For the R2 measurements using molecule 19 at varied concentrations of spy molecule and protein, see section 8.2 . For the R2 measurements using spy molecules 6 and 11 (used to generate figures S 2, S3 and S4) see

[2] = molecular target: T2, VHL (VBC complex: pVHL54-213, eloB1-104, eloC17-112) (Homo sapiens, UniProt P40337); test: Surface plasmon resonance (SPR) steady-state binding to immobilised biotinylated AviVBC; design: key to K D, SPR (footnote symbol instead of value): ^c: High responses in the SPR experiments, promiscuous or unspecific binders
T2 construct: equimolar complex of pVHL54-213, eloB1-104 and; made in house; host or cells: E. coli
T2 sequence (P40337 54-213): as the sequence (P40337 54-213) above
T2 sequence (Q15370 1-104 partner limits assumed): as the sequence (Q15370 1-104 partner limits assumed) above
T2 sequence (Q15369 17-112 partner limits assumed): as the sequence (Q15369 17-112 partner limits assumed) above
Method: The KD of each compound to VHL was determined by surface plasmon resonance (SPR) experiments.
3. Protein expression, purification and biotinylation
The VHL E3 ligase is a multi-protein complex composed of five proteins: VHL protein (pVHL), elongin B (eloB), elongin C (eloC), Cullin-2 (Cul2) and Ring-box protein 1 (Rbx1).[3] Since the compounds developed in this work bind solely to the VHL protein, the VBC complex (equimolar complex of pVHL54-213, eloB1-104 and eloC17-112) was used in all experiments, as it can be readily expressed in E. coli with high yields,[4] while the full E3 ligase would require baculovirus-insect cells expression system.[5] The expression and purification of VBC was performed as described previously by our group[2] and employed directly in all NMR experiments.
For the surface plasmon resonance (SPR) experiments, a VBC complex containing an AviTagTM in the N-terminus of eloB (AviVBC) was purified using the same procedure described for VBC. The modified eloB/eloC expression plasmid was previously developed in-house by Dr. Michael Roy and kindly shared. The AviVBC complex was site-specifically biotinylated in the AviTag using the GST-BirA method previously described by […]
4. Surface plasmon resonance experiments
The SPR experiments were performed with a Biacore T200 instrument (GE Healthcare). All measurements were performed at 20 °C with buffer containing 10 mM HEPES, pH 7.5, 150 mM NaCl, 1 mM TCEP, 0.005% (v/v) Tween® 20 and 2% (v/v) dimethyl sulfoxide (DMSO). Biotinylated AviVBC (~0.5 μM) was immobilised at 22 °C onto a Series S sensor chip SA (GE Heathcare) to levels of approximately 3500-4000 response units […]
Solutions of each spy molecule were prepared in buffer at concentrations based on previous structure-activity relationship studies of VHL ligands (K D expected in the nanomolar range for structures like spy molecules 16 and 22, or in the milimolar range for spy molecules similar to 1 and 9). From this first screen, the binding affinities were roughly estimated using the Biacore T200 evaluation software (GE Healthcare), then measurements were repeated using concentrations above and below the KD obtained in the first round to generate better curves for fitting the data accurately. Contact and dissociation times varied across the different compounds tested, but in […]
dissociated from the surface in less than sixty seconds.
Data analysis was performed using the steady state responses of the double-referenced sensorgrams (raw data subtracted from blank and reference surface injections) obtained for each concentration tested. These responses were plotted against the respective concentrations and the data fitted to a 1: 1 binding model u sing the Biacore T200 evaluation software and the following equation: […]
Where Req is the steady-state response at a given concentration C. Deviations in Req were corrected by adding an ‘offset’ term to the equation. KD is the dissociation constant to be determined and RMAX is the maximum response expected for a given compound according to the equation below:
Where n is the stoichiometry of the interaction ( in this case, n = 1) and RProtein is the immobilization level of protein. MWCompound and MWProtein are the molecular weights of compound and protein, respectively. Sensorgrams and fitting parameters for all spy molecules can be found in section 7.

VHL (VBC complex) [3] = molecular target: T1, VHL (VBC complex); test: 19F CPMG NMR transverse relaxation rate (R2) and R2 contrast (C2) of spy molecule with and without protein; assay type: binding
[4] = Spy molecule 100 μM, no protein
[5] = SPR, 20 °C, steady-state 1:1 fit, footnote b values fitted because RMAX was not reached experimentally, read-out: K D, SPR
[6] = SPR, responses too low, data could not be fitted, read-out: KD
[7] = SPR fit with very large error or RMAX above theoretical, unspecific / promiscuous binding suspected, read-out: KD (Biacore T200 fit, judged unreliable)
[8] = SPR steady-state fit, supplement section 7, read-out: KD (Biacore T200 fit)

| Structure (SMILES) | R2 (VHL (VBC complex) [1]; Spy molecule 100 μM + VBC 1 μM) [s⁻¹] | R2 contrast – C2 (VHL (VBC complex) [1]; Spy molecule 100 μM + VBC 1 μM) [%] | R2 (VHL (VBC complex) [1]; [4]) [s⁻¹] | Kd [2, 5] [µM] | Kd [2, 6] [µM] | K D, SPR (footnote symbol instead of value) ([2]; SPR) | Kd [2, 7] [µM] | SPR binding behaviour ([2]; SPR, supplement section 7) | Kd [2, 8] [µM] | R2 (VHL (VBC complex) [3]; section 8.3: spy molecules at 50 μM in absence of VBC (sub-head prints Spy molecule 100 μM)) [s⁻¹] | R2 (VHL (VBC complex) [3]; section 8.3: spy molecules at 50 μM in presence of VBC 1 μM (sub-head prints 100 μM)) [s⁻¹] | R2 contrast – C2 (VHL (VBC complex) [3]; section 8.3: spy molecules at 50 μM, VBC 1 μM) [%] | binding kinetics / dissociation rates by SPR ([2]; SPR) |
| --- | --- | --- | --- | --- | --- | --- | --- | --- | --- | --- | --- | --- | --- |
| O=C(NCc1ccc(Br)c(C(F)(F)F)c1)[C@@H]1C[C@@H](O)CN1 [Compound 1] | 1.115 ± 0.020 | 4.1 ± 3.1 | 1.069 ± 0.028 | > 1500 | > 1000 | – | – | – | – | – | – | – | – |
| CC(=O)N1C[C@H](O)C[C@H]1C(=O)NCc1ccc(-c2scnc2C)cc1C(F)(F)F [Compound 14] | 3.425 ± 0.073 | 53.9 ± 2.5 | 1.579 ± 0.022 | – | – | ^c | 223 | bind unspecifically / promiscuously to the protein surface | – | – | – | – | – |
| Cc1ncsc1-c1ccc(CNC(=O)[C@@H]2C[C@@H](O)CN2C(=O)CC(C)(C)C)c(C(F)(F)F)c1 [Compound 15] | 2.634 ± 0.058 | 41.3 ± 2.7 | 1.545 ± 0.035 | 35.2 ± 7 | – | – | – | – | 35.2 | – | – | – | – |
| Cc1ncsc1-c1ccc(CNC(=O)[C@@H]2C[C@@H](O)CN2C(=O)CC(C)(C)C)cc1C(F)(F)F [Compound 7] | 3.614 ± 0.088 | 62.1 ± 3.0 | 1.368 ± 0.033 | 67.1 ± 14 | – | – | – | – | 67.1 | – | – | – | – |
| CC(=O)NC(C(=O)N1CC(O)CC1C(=O)NCc1ccc(-c2scnc2C)c(C(F)(F)F)c1)C(C)(C)C (stereo not shown) [Compound 8] | 1.639 ± 0.022 | 17.7 ± 2.2 | 1.349 ± 0.027 | 2.99 ± 0.75 | – | – | – | – | 2.99 | – | – | – | – |
| CC(=O)N1C[C@H](O)C[C@H]1C(=O)NCc1ccc(Br)c(C(F)(F)F)c1 [Compound 2] | 1.251 ± 0.021 | 6.5 ± 2.2 | 1.170 ± 0.019 | 657 ± 49 | – | – | – | – | 657 | – | – | – | – |
| CC(C)(C)CC(=O)N1C[C@H](O)C[C@H]1C(=O)NCc1ccc(Br)cc1C(F)(F)F [Compound 11] | 2.740 ± 0.096 | 47.9 ± 4.1 | 1.427 ± 0.033 | 110 ± 9 | – | – | – | – | 110 | 1.534 ± 0.071 | 3.122 ± 0.145 | 50.9 ± 5.7 | – |
| CC(=O)NC(C(=O)N1CC(O)CC1C(=O)NCc1ccc(Br)c(C(F)(F)F)c1)C(C)(C)C (stereo not shown) [Compound 4] | 1.924 ± 0.037 | 38.9 ± 2.5 | 1.175 ± 0.027 | 4.39 ± 0.12 | – | – | – | – | 4.39 | – | – | – | – |
| O=C(NCc1ccc(Br)cc1)C1CC(O)CN1C(=O)C(F)(F)F (stereo not shown) [Compound 17] | 3.189 ± 0.066 | 62.0 ± 2.6 | 1.213 ± 0.028 | 645 ± 100 | – | – | – | – | – | – | – | – | – |
| CC(C)(C)C(NC(=O)C(F)(F)F)C(=O)N1CC(O)CC1C(=O)NCc1ccc(Br)cc1 (stereo not shown) [Compound 21] | 4.109 ± 0.247 | 3.7 ± 8.8 | 3.959 ± 0.262 | 0.447 ± 0.085 | – | – | – | – | 0.447 | – | – | – | too high to be determined accurately |
| CC(=O)NC(C(=O)N1CC(O)CC1C(=O)NCc1ccc(-c2scnc2C)cc1C(F)(F)F)C(C)(C)C (stereo not shown) [Compound 16] | 1.828 ± 0.031 | 1.3 ± 2.4 | 1.805 ± 0.032 | 0.268 ± 0.03 | – | – | – | – | 0.268 | – | – | – | too high to be determined accurately |
| Cc1ncsc1-c1ccc(CNC(=O)[C@@H]2C[C@@H](O)CN2)cc1C(F)(F)F [Compound 5] | 0.936 ± 0.011 | 2.2 ± 1.8 | 0.915 ± 0.012 | > 1500 | > 1000 | – | – | – | – | – | – | – | – |
| O=C(NCc1ccc(Br)cc1C(F)(F)F)[C@@H]1C[C@@H](O)CN1 [Compound 9] | 1.279 ± 0.022 | 0.9 ± 2.7 | 1.268 ± 0.026 | > 1500 | > 1000 | – | – | – | – | – | – | – | – |
| Cc1ncsc1-c1ccc(CNC(=O)[C@@H]2C[C@@H](O)CN2)c(C(F)(F)F)c1 [Compound 13] | 1.609 ± 0.017 | 3.2 ± 2.0 | 1.558 ± 0.028 | – | – | ^c | 2530 | unspecific / promiscuous binding to the protein surface | – | – | – | – | – |
